In ChEMBL document CHEMBL1147260, “Heliotropamide, a novel oxopyrrolidine-3-carboxamide from Heliotropium ovalifolium” (J Nat Prod, 2003):
Active and inactive are the calls of the source.

Key:
Cladosporium cucumerinum = test: Antifungal activity against Cladosporium cucumerinum; format: functional, organism-based
Candida albicans = test: Antifungal activity against Candida albicans; format: functional, organism-based
Bacillus subtilis = test: Antibacterial activity against Bacillus subtilis; format: functional, organism-based
[1] = Antioxidant activity assessed as DPPH scavenging activity; format: functional
[2] = biological target: Acetylcholinesterase (Homo sapiens) (UniProt P22303); test: Inhibition of acetylcholinesterase

Measured: Activity

Acetylcholinesterase (Homo sapiens), sequence (P22303 whole entry): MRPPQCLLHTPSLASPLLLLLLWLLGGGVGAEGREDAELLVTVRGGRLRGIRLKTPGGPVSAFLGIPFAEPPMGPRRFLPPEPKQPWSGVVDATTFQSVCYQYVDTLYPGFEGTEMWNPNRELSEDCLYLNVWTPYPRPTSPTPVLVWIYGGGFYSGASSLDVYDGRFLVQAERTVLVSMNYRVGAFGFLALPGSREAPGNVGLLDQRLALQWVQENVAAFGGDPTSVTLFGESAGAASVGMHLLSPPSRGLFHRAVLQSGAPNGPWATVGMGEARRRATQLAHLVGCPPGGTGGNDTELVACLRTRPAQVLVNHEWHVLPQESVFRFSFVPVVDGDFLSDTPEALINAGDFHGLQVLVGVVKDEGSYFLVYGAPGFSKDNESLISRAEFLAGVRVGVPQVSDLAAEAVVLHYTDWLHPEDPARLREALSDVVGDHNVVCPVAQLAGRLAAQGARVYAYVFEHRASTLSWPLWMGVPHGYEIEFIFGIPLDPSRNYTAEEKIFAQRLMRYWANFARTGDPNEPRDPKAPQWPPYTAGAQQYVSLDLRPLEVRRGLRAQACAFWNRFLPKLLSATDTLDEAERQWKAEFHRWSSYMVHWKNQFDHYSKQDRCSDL

COc1cc(/C=C2\C(=O)N(CCc3ccc(OC(C)=O)cc3)[C@H](c3ccc(OC(C)=O)c(OC)c3)[C@H]2C(=O)NCCc2ccc(OC(C)=O)cc2)ccc1OC(C)=O
inactive: all assays above

COc1cc(/C=C2\C(=O)N(CCc3ccc(O)cc3)[C@H](c3ccc(O)c(OC)c3)[C@H]2C(=O)NCCc2ccc(O)cc2)ccc1O
inactive: all assays above
